Like-named read-outs stand apart in the source and are kept apart here.

The results in this text go back to patent publication US11028051B2, “Tetrahydroquinoline-based bromodomain inhibitors” (St. Jude Children's Research Hospital, priority 2016, dated 2021).

The target of test [1] is BRD2-BD2 (Homo sapiens (Human), UniProt P25440). In words: competitive TR-FRET assay, BET-BD with acetylated peptide ligand. It is filed as binding. As to conditions: for 2.1/2.2: ratio of BRD2-BD1 EC50 to BRD2-BD2 EC50 (selectivity). How it is done: (§1) Inhibitor potency was determined using a competitive TR-FRET assay as detailed herein, measuring interaction of the respective BET-BD with an acetylated peptide ligand (Table 2).

The target of test [2] is BRD3-BD1 (Homo sapiens (Human), UniProt Q15059). The description is as above. It is filed as binding. How it is done: as §1
For test [3], the target named is BRDT (Homo sapiens, UniProt Q58F21). The test is described as above. It is filed as binding. The method, then: as §1
The target in test [4] is BRD2-BD1 (Homo sapiens (Human), UniProt P25440). The description is as above. It is filed as binding. The method, then: as §1
Test [5] addresses BRD4-BD2 (Homo sapiens (Human), UniProt O60885). The description is as above. It is filed as binding. The method, then:
as §1

The target of test [6] is BRD4-BD1 (Homo sapiens (Human), UniProt O60885). The description is as above. It is filed as binding. The method, then:
as §1

In test [7] the test system is c-Myc expression in HDMB03 cells. In words: c-Myc expression inhibition, high content microscopy (HCM). It is filed as cell-based, human. As to conditions: Homo sapiens, read-out: EC50 (μM) Myc-inhibition.
For test [8], the system named is HDMB03 cells. In words: cell viability, CellTiter-Glo. It is filed as cell-based, human. The note with it: Homo sapiens, read-out: EC50 (μM) HDMB03. The method, then: Human G3 medulloblastoma or mouse SHH medulloblastoma cells were grown as neurospheres in supplemented neurobasal medium, as previously described (Kawauchi et al., 2012.)
After 7 days of treatment, an equal volume of CellTiter-Glo reagent (G7572, Promega) was added and the luminescence signal was measured using an automated Envision plate reader (Perkin-Elmer). Luminescence data were normalized by log10 transformation prior to calculating the percent inhibition using the following equation:
100*(negative control mean −compound value)/(negative control mean −positive control mean).
High-throughput assay data were analyzed using Robust Interpretation of Screening Experiments (RISE) application written in Pipeline Pilot (Accelrys, v. 8.5) and the R program (R Development Core Team).
Dose-response curves were calculated by regressing the median percent inhibition obtained over triplicate experiments to log 10-transformed concentrations. Non-linear regression was then performed using the R drc package with the four parameter log-logistic function (LL2.4) (Ritz and Streibig, 2009). Curves were fit under three different constraints: (1) all parameters free, (2) high response fixed to 100, (3) low response fixed to 0; and the best fit from these three nested models was selected using the anova.drc function.
A general note: In ATP-based viability assays light output follows the ATP content of the culture.

The target in test [9] is BRD3(2) (Homo sapiens (Human), UniProt Q15059). The experiment in a line: BROMOscan KD determination. It is filed as binding. The note with it: for 3(1)/3(2): BROMOscan KD ratio; for Kd: BROMOscan, Table 10. An excerpt: (§2) DiscoverX® can screen compounds against all ˜42 bromodomains (a service called BROMOscan) and perform follow-up KD determination. This service is considered the industrial standard for bromodomain inhibitor comparisons.

For test [10], the target named is BRD3(1) (Homo sapiens (Human), UniProt Q15059). In words: BROMOscan KD determination. As to conditions: Table 10. It is filed as binding.
Text: as §2

The target in test [11] is BRD4(2) (Homo sapiens (Human), UniProt O60885). The experiment in a line: BROMOscan KD determination. It is filed as binding. The note with it: for 4(1)/4(2): BROMOscan KD ratio; for Kd: BROMOscan, Table 10.
Text: as §2

In test [12] the target is BRD4(1) (Homo sapiens (Human), UniProt O60885). In words: BROMOscan KD determination. As to conditions: Table 10. It is filed as binding.
Text: as §2

In test [13] the target is BRD2(1) (Homo sapiens (Human), UniProt P25440). In words: BROMOscan KD determination. It is filed as binding. The note with it: Table 10. An excerpt: (§3) DiscoverX® can screen compounds against all ˜42 bromodomains (a service called BROMOscan) and perform follow-up KD determination. This service is considered the industrial standard for bromodomain inhibitor comparisons. […] Dots are symbolic of inhibition of the compound at this concentration; the larger the size of the dot, the greater the activity of the compound. […] Though these compounds are selective for the BET family, the selectivity within the BET family is poor. The results of a competitive binding experiment between compounds 19 (left), 41 (center), and 56 (right) (at a single concentration, 1 μM) and a control for each of the bromodomains are shown in FIG. 5.

The target of test [14] is BRDT(1) (Homo sapiens (Human), UniProt Q58F21). The experiment in a line: BROMOscan KD determination. It is filed as binding. As to conditions: Table 10.
Text: as §3

Test [15] concerns the target BRDT(2) (Homo sapiens (Human), UniProt Q58F21). The experiment in a line: BROMOscan KD determination. As to conditions: for T(1)/T(2): BROMOscan KD ratio; for Kd: BROMOscan, Table 10. It is filed as binding.
Text: as §3

The target in test [16] is BRD2(2) (Homo sapiens (Human), UniProt P25440). The experiment in a line: BROMOscan KD determination. It is filed as binding. The note with it: for [2(1)/2(2)]: BROMOscan KD ratio; for Kd: BROMOscan, Table 10.
Text: as §3

[17] abbreviates: BRD2-BD2, Table 11 additional modifications, read-out: 2.2 EC50.
[18] abbreviates: BRD3-BD1, Table 11 additional modifications, read-out: 3.1 EC50.
Setting [19] is: BRDT, Table 11 additional modifications, read-out: BRDT EC50.
The mark [20] stands for this setting: BRD2-BD1, Table 11 additional modifications, read-out: 2.1 EC50.
Setting [21] is: BRD4-BD1, Table 11 additional modifications, read-out: 4.1 EC50.

BRD3(2), sequence (Q15059 306-415): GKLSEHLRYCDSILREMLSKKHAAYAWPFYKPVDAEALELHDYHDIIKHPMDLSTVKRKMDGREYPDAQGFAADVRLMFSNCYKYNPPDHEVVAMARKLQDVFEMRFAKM
BRD2-BD2, sequence (P25440 344-453): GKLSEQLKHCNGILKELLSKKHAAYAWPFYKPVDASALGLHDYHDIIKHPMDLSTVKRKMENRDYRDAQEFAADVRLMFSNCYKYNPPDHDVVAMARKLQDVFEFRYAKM
BRD2(2), sequence (P25440 344-453): as above
BRD2(1), sequence (P25440 74-180): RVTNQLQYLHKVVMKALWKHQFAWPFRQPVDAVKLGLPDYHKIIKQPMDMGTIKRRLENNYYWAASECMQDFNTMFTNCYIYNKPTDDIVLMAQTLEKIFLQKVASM
BRD2-BD1, sequence (P25440 74-180): as above
BRD3(1), sequence (Q15059 34-140): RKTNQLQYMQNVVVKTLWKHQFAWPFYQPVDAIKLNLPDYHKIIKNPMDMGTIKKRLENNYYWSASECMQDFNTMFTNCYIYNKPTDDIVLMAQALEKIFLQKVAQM
BRD3-BD1, sequence (Q15059 34-140): as above

For the compound `CC(=O)Nc1cccc(-c2ccc3c(c2)[C@H](Nc2ccc(F)cc2)C[C@H](C)N3C(C)=O)c1` [compound 39], in test [1] (Table 4, ratio of EC50), the “[2(1)/2(2)]” value amounted to 51. The EC50 came out at 0.11 µM in test [1] (Table 4, read-out: EC50 (μM) BRD2(2)); 2700 nM in test [2] (Table 4, read-out: BRD3(1)); 10000 nM in test [3] (Table 4, read-out: BRDT EC50); 5.6 µM in test [4] (Table 4, read-out: EC50 (μM) BRD2(1)); 0.09 µM in test [5] (Table 4, read-out: EC50 (μM) BRD4(2)); 5.7 µM in [6] (Table 4, read-out: EC50 (μM) BRD4(1)). In addition, the EC50 was found to be 0.04 µM in test [7] (HD-MB03, Table 5) and 1.68 µM in test [8] (HD-MB03, Table 5). For the same compound, the “4(1)/4(2)” value in test [5] (Table 4, ratio of EC50) amounted to 63.

A word on the Kd: it is the constant that tells how readily two partners part at equilibrium. Low readings indicate a tighter complex, high ones a looser complex. On to `CC(=O)N1c2ccc(-c3cccc(-n4cccn4)c3)cc2[C@H](Nc2ccc(Cl)cc2)C[C@@H]1C` [compound 136], for which the EC50 in [1] (setting [17]) came to 0.19 µM; in test [2] (setting [18]) it was 10000 nM; in test [3] (setting [19]), 10000 nM; in [4] (setting [20]), 17 µM; in test [5] (BRD4-BD2, Table 11 additional modifications, read-out: 4.2 EC50), 0.25 µM; in test [6] (setting [21]) it was 17 µM. Also, the 2.1/2.2 in test [1] was determined as 63. Moreover, in [9], the “3(1)/3(2)” value was found to be 29.3. For the same compound, the Kd in test [9] was 7.5 nM; in test [10], 220 nM; in test [11] it was 7.7 nM; in test [12], 270 nM; in test [13] it was 350 nM; in test [14], 220 nM. In addition, the Kd in [15] amounted to 66 nM; in test [16], 16 nM. Also, the “4(1)/4(2)” value in test [11] came out at 35.1. Moreover, in test [15], the “T(1)/T(2)” value was 3.3. In [16], the “[2(1)/2(2)]” value was 21.9.

On to `COC(=O)c1ccc(N[C@@H]2C[C@H](C)N(C(C)=O)c3ccc(-c4ccnn4C)cc32)cc1` [compound 49], for which the EC50 turned out to be 0.14 µM in [1] (Table 8, read-out: EC50 (μM) BRD2(2)); 900 nM in test [2] (Table 8, read-out: BRD3(1)); 4400 nM in test [3] (Table 8, head names no target, BRDT by comparison with Table 4, read-out: EC50); 1.4 µM in test [4] (Table 8, read-out: EC50 (μM) BRD2(1)); 5.1 µM in test [7] (HD-MB03, Table 9, c-Myc expression inhibition in HDMB03 cells); 1.6 µM in test [8] (HD-MB03, Table 9, cancer cell proliferation inhibition). Also, the “3(1)/3(2)” value in [9] turned out to be 6.9. In addition, the dissociation constant (Kd) in [9] came to 1.6 nM; in test [10], 11 nM; in [11], 1.1 nM; in test [12], 14 nM; in test [13] it was 23 nM; in [14], 17 nM. Moreover, the Kd in test [15] turned out to be 2.8 nM; in test [16], 1.7 nM. The “4(1)/4(2)” value in test [11] was determined as 12.7. Moreover, the “T(1)/T(2)” value in test [15] was determined as 6.1. Besides, in test [16], the “[2(1)/2(2)]” value worked out at 13.5.

Turning to `CCCOc1cccc(-c2ccc3c(c2)[C@H](Nc2ccc(C(=O)OC)cc2)C[C@H](C)N3C(C)=O)c1` [compound 56], the EC50 in test [1] (setting [17]) is 0.5 µM; in test [2] (setting [18]), 8100 nM; in test [3] (setting [19]) it was 12000 nM; in test [4] (setting [20]) it was 8.2 µM; in test [6] (setting [21]) it was > 63 µM. The 2.1/2.2 in [1] came to 16. Further, the “3(1)/3(2)” value in test [9] worked out at 23.0. The dissociation constant (Kd) in test [9] was found to be 4.3 nM; in [10], 99 nM; in [11], 4.4 nM; in test [12], 140 nM; in test [13] it was 160 nM; in test [14], 95 nM. For the same compound, the dissociation constant Kd came out at 23 nM in [15] and 8.2 nM in test [16]. Moreover, in [11], the “4(1)/4(2)” value is 31.8. Moreover, in test [15], the “T(1)/T(2)” value came out at 4.1. Also, the “[2(1)/2(2)]” value in test [16] is 19.5.
